Experiments:
[1] = target: T1, S-adenosylhomocysteine hydrolase (AHCY) (Homo sapiens, UniProt P23526); assay: steady-state inhibition kinetics on purified recombinant AHCY, ADA-coupled, LC-MS quantification of inosine; type: biochemical
T1 construct: human full-length AHCY, N-terminal 6xHis tag

[2] = target: T1, S-adenosylhomocysteine hydrolase (AHCY); assay: enzymatic turnover of SAH by purified recombinant AHCY, LC-MS quantification of adenosine; type: biochemical

T1 sequence (P23526 whole entry): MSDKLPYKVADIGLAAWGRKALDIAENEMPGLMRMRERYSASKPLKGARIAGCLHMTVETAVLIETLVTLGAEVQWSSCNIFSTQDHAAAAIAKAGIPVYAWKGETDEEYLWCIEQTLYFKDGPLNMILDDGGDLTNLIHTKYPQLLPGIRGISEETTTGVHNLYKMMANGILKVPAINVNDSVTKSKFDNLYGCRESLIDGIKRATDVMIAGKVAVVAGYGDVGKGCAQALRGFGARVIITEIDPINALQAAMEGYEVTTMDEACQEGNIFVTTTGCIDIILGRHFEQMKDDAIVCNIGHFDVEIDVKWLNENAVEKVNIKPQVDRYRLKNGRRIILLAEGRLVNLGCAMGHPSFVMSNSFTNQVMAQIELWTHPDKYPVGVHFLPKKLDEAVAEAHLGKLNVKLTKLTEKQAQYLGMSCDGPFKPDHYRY

| Ki [1] | Compound | enzymatic turnover of SAH by purified recombinant AHCY, LC-MS quantification of [2] |
| --- | --- | --- |
| 36.5 µM | C[N+](C)(C)[O-] [TMAO] | – |
| – | Nc1ncnc2c1ncn2[C@@H]1O[C@H](CSCC[C@H](N)C(=O)O)[C@@H](O)[C@H]1O [SAH] | purified AHCY revealed that SAH is converted to adenosine in an enzyme dependent fashion |

— PMC12390942, “Gut microbiota–derived metabolite trimethylamine N-oxide alters the host epigenome through inhibition of S-adenosylhomocysteine hydrolase” (The Journal of Biological Chemistry, 2025)
